This is an account of results in a melting point compilation (Tetko et al.; mined from patent text by program, amines drawn as free bases though some values may be those of a salt).

In general, melting point refers to the temperature, or range, at which the solid turns liquid. In turn, `COCCOc1cc(Cc2cnc(N)nc2N)cc2cccnc12` showed a melting point of 253 to 255 °C.

The molecule `COC(=O)c1cc(C(=O)OC)cc(-c2ccc(C=O)cc2)c1` yielded a melting point of 166 to 169 °C.

In the case of `Cc1c(N2C(=O)C=CC2=O)cccc1N1C(=O)C=CC1=O`, the melting point was 210 to 212 °C.

Take `O=C1CCC2CCCC(CCC(=O)OCc3ccccc3)C2N1` (stereo not given): the melting point lay in the range of 101 to 102 °C.

`CCCn1nc2c(N)nc3ccccc3c2c1CC` gave a melting point of 219 to 220 °C.

Molecule `COC(=O)c1ccccc1Cc1cc2cc(Cl)ccc2n1S(=O)(=O)c1ccc2c(c1)C(C)(C)CO2` returned a melting point of 160 °C.

Regarding `CCN1C[C@@H](SCc2ccc(OC)cc2)C[C@H]1C(N)=O`, the melting point lay within 124 to 125 °C.

The molecule `CC1(C)C=C(c2ccccn2)c2cc(C(F)(F)F)ccc2OC1` came in with a melting point of 90 °C.

As for `COC(=O)c1cc(OC)c(Cl)c(C)c1Cl`, the melting point came to 74 °C.

Molecule `Cc1ccc(C)c(SCCCC(=O)O)c1` showed a melting point of 61 to 62 °C.

`COC(=O)CS(=O)(=O)N1CC=C(c2ccc(-c3ccccc3)cc2)CC1` gave a melting point of 182 to 183 °C.

`CCCCc1nc(=O)c2cc(C#N)ccc2[nH]1` registered a melting point of 243 to 245 °C.

`CCN1N=C(c2ccc3c(c2)CCC(=O)N3C)C(C)CC1=O` (stereo not given): the melting point is 170 to 172 °C.

The molecule `O=C1C2=C(CCCC2)C(=O)N1CCCCCCN1C(=O)C2=C(CCCC2)C1=O` registered a melting point of 123 to 124 °C.

On to `O=C(c1ccc(OCc2ccccc2)cc1O)c1ccc(OCc2ccccc2)cc1O`, for which the melting point was 140 to 142 °C.

Regarding `CC1(C)CC(=O)c2cc3c(cc2O1)OCO3`, the melting point is 61 to 62 °C.

Turning to `Cc1nc(Nc2ccc(Cl)cc2)sc1-c1nc2ccccc2c(=O)n1-c1ccc(Cl)cc1`, the melting point is 267 to 268 °C.

Regarding `Cc1nc2c(N)nc3ccc(OCc4ccccc4)cc3c2n1CCCCNC(=O)N1CCOCC1`, the melting point was 178 to 180 °C.

As for `COc1ccc(NC(C)(C)C(=O)O)c([N+](=O)[O-])c1`, the melting point was 119 to 121 °C.

For `COC(=O)c1cncc(N(C)C(=O)C(C)CSC(C)=O)c1` (stereo not given), the melting point was in the range of 123 to 125 °C.

The molecule `CC1(C)OC(c2ccc(S(N)(=O)=O)c(F)c2)=C(c2cc(F)cc(F)c2)C1=S` had a melting point of 153 to 154 °C.

As to `Nc1nc2c(ncn2C2C=CC(CO)C2)c(=S)[nH]1` (stereo not given), the melting point is more than 250 °C.

Turning to `CC(CS)C(=O)N1CC(Oc2ccc(CC3Nc4cc(Cl)c(S(N)(=O)=O)cc4S(=O)(=O)N3C)cc2)CC1C(=O)O` (stereo not given), the melting point lay in the range of 192 to 197 °C.

`CNC(=O)Nc1ccc(Cl)c(Cl)c1` gave a melting point of 156 °C.

As to `NC=C1C(=O)c2ccccc2OC1c1ccccc1` (stereo not given), the melting point was 149 to 152 °C.

With `O=C(CCC(CCC(=O)OCc1ccccc1)(CCC(=O)OCc1ccccc1)[N+](=O)[O-])OCc1ccccc1`, the melting point fell in the range of 95 to 96 °C.

In turn, `CC1(C)CN(S(=O)(=O)c2ccccc2F)c2cccc(Br)c2O1` showed a melting point of 108 to 110 °C.

As for `Cc1ccc(C=CC(=O)NN2CC(=O)NC2=O)cc1Cl`, the melting point lay in the range of 271 to 273 °C.

Molecule `COC(=O)c1ccc(O)c(N)c1C(=O)OC` yielded a melting point of 112 to 113 °C.

As to `CC(=O)NC1CCC2=C(CC1)C(=O)CC=C2` (stereo not given), the melting point lay within 115 to 116 °C.

`Cc1[nH]c(=O)cc2c1CC(c1ccccn1)CC2` (stereo not given) registered a melting point of 260 °C.

In turn, `CCOC(=O)c1ncc2[nH]c3ccc(S(=O)(=O)N(C)C)cc3c2c1COC` showed a melting point of 191 to 193 °C.

The molecule `COc1ccc([C@@H]2CN(C)CC[C@@H]2NC(=S)c2ccc(C)cc2)cc1OC` (relative stereo) showed a melting point of 144 to 146 °C.

Regarding `Cc1nn(-c2c(Cl)cc(S(=O)(=O)C(F)(F)F)cc2Cl)nc1-c1nc(C#N)c(C#N)[nH]1`, the melting point was in the range of 244 to 245 °C.

Turning to `CCOC(=O)C1=C(C)N(C(C)=O)C(c2csc(C)n2)=NC1c1ccc(Cl)cc1` (stereo not given), the melting point lay within 169 to 171 °C.
